The text below walks through data of US20210077477A1, “MICROGLIA MODULATORS FOR USE IN TREATMENT OF DEPRESSION” (priority 2018, published 2021).

Structures are written as SMILES. Entries after “also recorded” stand apart in the source; their conditions may differ.

Assay [1] concerns hippocampal gene transcripts. Kind of assay: RNA sequencing of hippocampal gene transcription. It counts as in vivo, mice. Conditions: for Log 2 (fold change) Con-Stress-Sham vs. PLX-Stress-Sham: hippocampus. From the text: RNA Sequencing, PolyA based mRNA was selected using oligodT beads, followed by fragmentation, first strand and second strand synthesis reactions. Illumina libraries were constructed while performing the end repair, A base addition, adapter ligation and PCR amplification steps with SPRI beads cleanup in between steps. Indexed samples were pooled and sequenced in an Illumina HiSeq 2500 machine in a single read mode.
Bioinformatics analysis. Adapters were trimmed using the cutadapt tool. Following adapter removal, reads that were shorter than 40 nucleotides were discarded (cutadapt option −m 40). Reads that had either a percentage of Adenine bases above 50% or a percentage of Thymine bases above 50% were discarded using a custom script. TopHat (v2.0.10) was used to align the reads to the mouse genome (mm10). Counting reads on mm10 refseq genes (downloaded from igenomes) was done with HTSeq-count (version 0.6.1p1). Differential expression analysis was performed using DESeq2 (1.6.3). Raw p values were adjusted for multiple testing (q-value, false discovery rate).

Assay [2] concerns CUS-exposed mice. Kind of assay: Social exploration test in the CUS model. It counts as in vivo. The procedure:
(§1) The CUS schedule comprised daily exposure to two stressors in a random order over a 5-week period. The list of CUS stressors included: cage shaking for 1 h with loud music and lights on, lights on during the entire night (12 h), lights-off for 3 h during the daylight phase, flashing (stroboscopic) light for 6 h, placement in 4° C. cold room for 1 h, mild restraint (in small ventilated cages) for 2 h, 45° cage tilt for 14 h, wet sawdust in the cage for 14 h, exposure to rat odor for 2 h, noise in the room for 3 h, and water deprivation for 12 h during the dark period.
Each subject was placed in an observation cage and allowed to habituate to the cage for 15 min, following which a male juvenile was placed in the cage. Social exploration, defined as the time of near contact between the nose of the subject and the juvenile conspecific, was then recorded for 2 min, using computerized in-house software.

Assay [3] deals with CUS-exposed mice. Kind of assay: Sucrose preference test (anhedonia) in the CUS model. It counts as in vivo. The procedure: as §1
Following baseline adaptation to sucrose for 3-4 days, mice were presented in the beginning of the dark circadian phase with two graduated drinking tubes, one containing tap water and the other 1% sucrose solution for 4 h. Sucrose preference was calculated as the percentage of sucrose consumption out of the total drinking volume.

The subject of another assay is hippocampal neurogenesis. Description: Hippocampal neurogenesis (DCX-positive cells in the DG). The assay is classed as in vivo, mice. Conditions: CUS-exposed, PLX diet, DCX-stained cells in DG. The procedure:
Microglia were visualized using a primary antibody to the microglial marker ionized calcium-binding adapter molecule-1 (Iba-1) (rabbit anti Iba-1 1:250, Wako, Japan), followed by a secondary antibody (goat anti rabbit, 1:200; Invitrogen, Carlsbad, Calif., USA). The rate of neurogenesis in the hippocampus was measured by staining for doublecortin (DCX), using guinea pig anti-DCX (1:1,000, Millipore, Chemicon, Tamecula, Calif., USA) as the primary antibody, and biotin-SP-conjugated donkey anti-Guinea pig (1:200; Jackson Laboratories, West grove, PA, USA) as the secondary antibody, with final visualization using a conjugated streptavidin Ab (Jackson Laboratories, West grove, PA, USA). […]
Images were captured using a Nikon Eclipse microscope and camera. Cells were manually counted using 10× magnification in a defined area exclusively containing the dentate gyrus (DG) or CA3 region of the dorsal hippocampus for each slide, using Nikon Imaging Elements Software (NIS-Elements). Four sections of each brain were counted. […] Microglia cell processes length was measured by capturing images at 40× magnification and by manual tracing of the processes of all Iba-1+ cells in these sections, using the Image)/FIJI software. […] Contacts were recorded if spatial overlap was observed on the body or on the dendrite branches of P2YR12-positive cells. […]

Assay [4] concerns brain microglia. The settings on record: given chronically (more than 2-3 weeks); Danger et al., 2015; cited from earlier work.
In assay [5] the test system is hippocampal gene transcripts. Description: qPCR validation of hippocampal gene expression. Conditions: hippocampus, CUS-exposed mice. The assay is classed as in vivo. How it is done:
Mice were sacrificed by decapitation. Each brain was quickly removed on an ice-cold glass plate, and the hippocampus was dissected out under a binocular. Tissues were weighed, flash frozen in liquid nitrogen, and stored in −80° C. until RNA extraction. RNA was extracted using PerfectPure RNA extraction kit (5 PRIME, Darmstadt, Germany). RNA samples (2 μg) were reverse transcribed using the QuantiTect Reverse Transcription Kit from Qiagen (Hilden, Germany), including DNase treatment of contaminating genomic DNA. Expression of mRNA was determined by qPCR, using glyceraldehyde-3-phosphate dehydrogenase (Gapdh) as a normalizing gene. The following list of gene transcripts was validated: Ionized calcium-binding adapter molecule 1 (Iba1), the Purinergic receptor P2yr12, Lymphocyte-activation gene 3 (Lag-3), Cd180, tryptophan 2,3-dioxygenase (Tdo2), Phospholipase A2 Group IVE (Plag24e) Sox11, and Dopamine Receptor D1 (Drd1). Primers were designed using PrimerQuest IDT (Integrated DNA Technologies, Inc, San Diego, Calif., USA). The following primers were used, Gapdh, Forward: TCTCCCTCACAATTTCC (SEQ ID NO: 1); Reverse: GGGTGCAGCGAACTTTA (SEQ ID NO: 2). Drd1, Forward: […] (SEQ ID NO: 3); Reverse: […] (SEQ ID NO: 4). Tdo2, Forward: […] (SEQ ID NO: 5); Reverse: […] (SEQ ID NO: 6). Iba1, Forward: […] (SEQ ID NO: 7); Reverse: […] (SEQ ID NO: 8). Lag-3, Forward: […] (SEQ ID NO: 9); Reverse: […] (SEQ ID NO: 10). Cd180, Forward: […] (SEQ ID NO: 11); Reverse: […] (SEQ ID NO: 12). Sox11, Forward: […] (SEQ ID NO: 13); Reverse: […] (SEQ ID NO: 14). Plag24e, Forward: […] (SEQ ID NO: 15); Reverse: […] (SEQ ID NO: 16), and P2yr12 Forward: […] (SEQ ID NO: 17); Reverse: […] (SEQ ID NO: 18). Normal and mock reversed transcribed samples (in the absence of reverse transcriptase), as well as no template controls (total mix without cDNA) were run for each of the examined mRNAs. qPCR reactions were subjected to an initial step of 15 min at 95° C. to activate the HotStar Taq DNA polymerase, followed by 40 cycles consisting of 15 s at 94° C., 30 s at 60° C. and 30 s at 72° C. Fluorescence was measured at the end of each elongation step. Data were collected and analyzed using the StepOnePlus instrument and software (Thermo Fischer Scientific), and a threshold cycle value Ct was calculated from the exponential phase of each PCR sample. Expression levels of mRNAs were calculated and expressed in relative units of SYBR Green fluorescence.

In assay [6] the test system is brain microglia. Description: Microglia depletion by PLX5622 diet (IBA-1 staining). The assay is classed as in vivo, mice. Conditions: diet containing PLX5622 for weeks, incl. hippocampus.
The subject of assay [7] is CUS-exposed mice. Kind of assay: Porsolt forced swim test in the CUS model. It counts as in vivo. How it is done: as §1
Mice were placed in a plastic cylinder (with a height of 30 cm and diameter of 20 cm), filled with 25° C. water. The time spent immobile, defined as the absence of all movement except for motions required to maintain head above water were recorded for 6 min, and automatically analyzed off-line using the EthoVision software (Noldus).

[8] abbreviates: CUS-exposed SHAM-treated mice, q<0.32, cutoff ±1.3-fold.
Where [9] appears, read: PLX5622 diet, non-stressed mice.
Setting [10] is: CUS 5 weeks, antibody 100 μg i.p. every 4 days, 6 injections, Cipralex daily i.p., 3 weeks.

For `COc1ncc(F)cc1CNc1ccc(Cc2c[nH]c3ncc(C)cc23)c(F)n1` [PLX5622], in assay [1] (setting [8]), the “genes differentially regulated, PLX vs CDiet” value is on record as 390 genes. For the same molecule, in assay [1] (setting [8]), the “genes down-regulated, PLX vs CDiet” value came to 338 genes. The “genes up-regulated, PLX vs CDiet” value in assay [1] (setting [8]) turned out to be 52 genes. In assay [1] (CUS-exposed mice), the “genes differentially regulated between SHAM vs ECT in PLX-treated groups” value is given as “no genes were differentially regulated”. The “Log 2 (fold change) Con-Stress-Sham vs. PLX-Stress-Sham” value in assay [1] (Cd40 transcript) is listed as 0.159; in assay [1] (Cd80 transcript), 0.371; in assay [1] (Cd86 transcript), 2.092; in assay [1] (Cd180 transcript), 1.892; in assay [1] (Cd276 transcript), 0.019; in assay [1] (Ctla4 transcript) it was 0.100. The “Log 2 (fold change) Con-Stress-Sham vs. PLX-Stress-Sham” value in assay [1] (Havcr2 (TIM-3) transcript) is recorded as 2.101; in assay [1] (Lag-3 transcript), 1.968; in assay [1] (Lgals3 transcript), 0.011; in assay [1] (PD-L1 transcript), 0.164; in assay [1] (Pdcd1lg2 transcript) it was −0.373; in assay [1] (Pdcd1 transcript), −0.669. Besides, the “Log 2 (fold change) Con-Stress-Sham vs. PLX-Stress-Sham” value in assay [1] (Tdo2 transcript) is reported as −0.248; in assay [1] (Tigit transcript) it was −0.804; in assay [1] (Vtcn1 transcript) it was −0.905. Also, the “difference between effects of ECT on social exploration in PLX vs CDiet mice” value in the assay with CUS-exposed mice [2] (CUS-exposed, ECT 2.5 weeks) is given as “did not reach statistical significance”. The “social exploration, effect of microglia depletion by itself” value in the assay with CUS-exposed mice [2] (setting [9]) was “did not reduce”. The “anti-depressive effect of ECT under microglial depletion” value in the assay on CUS-exposed mice [3] (CUS-exposed, PLX5622 diet, 2.5-week course of ECT) is recorded as “markedly attenuated”. Moreover, the “effect of ECT on sucrose preference in PLX diet mice” value in the assay with CUS-exposed mice [3] (CUS-exposed, PLX diet, ECT 3 times/week for 2.5 weeks) was “only a small increase”. Further, the “development of CUS-induced depression” value in the assay on CUS-exposed mice [3] (PLX5622 diet, 5 weeks CUS, sucrose preference and social exploration) is “did not influence”. Besides, in the assay with CUS-exposed mice [3] (setting [9]), the “sucrose preference, effect of microglia depletion by itself” value is “did not reduce”. Moreover, the “effect of ECT on hippocampal neurogenesis under microglia depletion” value is on record as “completely prevented” with hippocampal neurogenesis and “significantly reduced” in the assay with hippocampal neurogenesis (listed as PLX). The microglial depletion entry in the assay with brain microglia [4] is “near-complete microglial depletion”. Moreover, in assay [5], the “Cd180 gene expression in PLX-treated mice” value is “lower expression levels”. For the same molecule, in assay [5], the “Drd1 expression, effect of the microglia depletion procedure by itself” value was “not affected”. Also, the “Iba1 expression, effect of the PLX5622 procedure” value in assay [5] is given as “significantly reduced”. Also, the “Lag-3 transcription in PLX-treated mice” value in assay [5] is recorded as “almost completely abolished”. Also, the “P2ry12 expression, effect of the PLX5622 procedure” value in assay [5] is on record as “significantly reduced”. Moreover, in assay [5], the “Sox11 expression, effect of the microglia depletion procedure by itself” value was “not affected”. Also, in assay [5], the “Tdo2 expression in PLX5622-treated mice” value is given as “significantly increased”. In addition, the “pla2g4e expression in PLX5622-treated mice” value in assay [5] is “significantly increased”. In addition, in the assay with brain microglia [6], the “depletion of brain microglia” value was “near-complete depletion”. For the same molecule, in the assay with CUS-exposed mice [7] (CUS-exposed, ECT 2.5 weeks), the “forced swim immobility of ECT-treated PLX mice vs CDiet mice” value is “significantly greater forced swim immobility”. Also, the “immobility in forced swim, effect of microglia depletion by itself” value with CUS-exposed mice [7] (setting [9]) is “did not reduce”.
Consider `CN(C)CCC[C@@]1(c2ccc(F)cc2)OCc2cc(C#N)ccc21` [escitalopram], for which, in the assay with CUS-exposed mice [2] (setting [10]), the “social exploration (SE) after vs before chronic treatment” value is “significantly elevated; also recorded: significant increase”. For the same molecule, the “sucrose preference after vs before chronic treatment” value in the assay with CUS-exposed mice [3] (setting [10]) is “had no such effect”.
